Assay results taken from patent publication US10987342B2, “Methods and compositions for transdermal delivery of a non-sedative amount of dexmedetomidine” (Teikoku Pharma USA, Inc., priority 2013, dated 2021).
Like-named read-outs stand apart in the source and are kept apart here.

solubility of dexmedetomidine (in Duro-Tak 87-2979): less than 2%
solubility of dexmedetomidine (in Duro-Tak 387/87-2353 (acid functionalized acrylate polymer)): 10-15%
solubility of dexmedetomidine (in hydroxyl functionalized acrylate polymer): less than 1%
solubility of dexmedetomidine (in levulinic acid): ~60%
solubility of dexmedetomidine (in oleic acid): ~40%
SMILES: Cc1cccc([C@H](C)c2cnc[nH]2)c1C [dexmedetomidine, Dexmedetomidine]
